# Source: ChEMBL document CHEMBL3797052 (Eur J Med Chem, 2016)
# What was measured:
# Format in all cases: functional
# [1] = Cytotoxicity against human HCT116 cells assessed as growth inhibition at 100 uM after 2 days by MTT assay; conditions: HCT-116, 48 h, read-out: GI
# [2] = Cytotoxicity against human HCT116 cells assessed as growth inhibition at 10 uM after 2 days by MTT assay; conditions: HCT-116, 48 h, read-out: GI
# [3] = Cytotoxicity against human SKBR3 cells assessed as growth inhibition at 100 uM after 2 days by MTT assay; conditions: SK-BR-3, 48 h, read-out: GI
# [4] = Cytotoxicity against human SKBR3 cells assessed as growth inhibition at 10 uM after 2 days by MTT assay; conditions: SK-BR-3, 48 h, read-out: GI
# [5] = Antiproliferative activity against human MOLT4 cells assessed as cell growth at 10^-5 M after 48 hrs by sulforhodamine B assay; conditions: MOLT-4, 48 h, read-out: Activity
# [6] = Antiproliferative activity against human RPMI8226 cells assessed as cell growth at 10^-5 M after 48 hrs by sulforhodamine B assay; conditions: RPMI-8226, 48 h, read-out: Activity
# A549 = test: Antiproliferative activity against human A549/ATCC cells assessed as cell growth at 10^-5 M after 48 hrs by sulforhodamine B assay; conditions: A549, 48 h, read-out: Activity
# [7] = Antiproliferative activity against human HOP62 cells assessed as cell growth at 10^-5 M after 48 hrs by sulforhodamine B assay; conditions: HOP-62, 48 h, read-out: Activity
# [8] = Antiproliferative activity against human HOP92 cells assessed as cell growth at 10^-5 M after 48 hrs by sulforhodamine B assay; conditions: HOP-92, 48 h, read-out: Activity
# NCI-H226 = test: Antiproliferative activity against human NCI-H226 cells assessed as cell growth at 10^-5 M after 48 hrs by sulforhodamine B assay; conditions: NCI-H226, 48 h, read-out: Activity
# NCI-H460 = test: Antiproliferative activity against human NCI-H460 cells assessed as cell growth at 10^-5 M after 48 hrs by sulforhodamine B assay; conditions: NCI-H460, 48 h, read-out: Activity
# NCI-H522 = test: Antiproliferative activity against human NCI-H522 cells assessed as cell growth at 10^-5 M after 48 hrs by sulforhodamine B assay; conditions: NCI-H522, 48 h, read-out: Activity
# [9] = Antiproliferative activity against human COLO205 cells assessed as cell growth at 10^-5 M after 48 hrs by sulforhodamine B assay; conditions: COLO 205, 48 h, read-out: Activity
# [10] = Antiproliferative activity against human HCT15 cells assessed as cell growth at 10^-5 M after 48 hrs by sulforhodamine B assay; conditions: HCT-15, 48 h, read-out: Activity
# KM12 = test: Antiproliferative activity against human KM12 cells assessed as cell growth at 10^-5 M after 48 hrs by sulforhodamine B assay; conditions: KM12, 48 h, read-out: Activity
# [11] = Antiproliferative activity against human SNB75 cells assessed as cell growth at 10^-5 M after 48 hrs by sulforhodamine B assay; conditions: SNB-75, 48 h, read-out: Activity
# Malme-3M = test: Antiproliferative activity against human MALME-3M cells assessed as cell growth at 10^-5 M after 48 hrs by sulforhodamine B assay; conditions: read-out: Activity
# M14 = test: Antiproliferative activity against human M14 cells assessed as cell growth at 10^-5 M after 48 hrs by sulforhodamine B assay; conditions: M14, 48 h, read-out: Activity
# SK-MEL-2 = test: Antiproliferative activity against human SK-MEL-2 cells assessed as cell growth at 10^-5 M after 48 hrs by sulforhodamine B assay; conditions: SK-MEL-2, 48 h, read-out: Activity
# SK-MEL-28 = test: Antiproliferative activity against human SK-MEL-28 cells assessed as cell growth at 10^-5 M after 48 hrs by sulforhodamine B assay; conditions: SK-MEL-28, 48 h, read-out: Activity
# [12] = Antiproliferative activity against human UACC257 cells assessed as cell growth at 10^-5 M after 48 hrs by sulforhodamine B assay; conditions: UACC-257, 48 h, read-out: Activity
# [13] = Antiproliferative activity against human IGROV1 cells assessed as cell growth at 10^-5 M after 48 hrs by sulforhodamine B assay; conditions: IGROV-1, 48 h, read-out: Activity
# [14] = Antiproliferative activity against human OVCAR3 cells assessed as cell growth at 10^-5 M after 48 hrs by sulforhodamine B assay; conditions: OVCAR-3, 48 h, read-out: Activity
# [15] = Antiproliferative activity against human OVCAR4 cells assessed as cell growth at 10^-5 M after 48 hrs by sulforhodamine B assay; conditions: OVCAR-4, 48 h, read-out: Activity
# [16] = Antiproliferative activity against human OVCAR8 cells assessed as cell growth at 10^-5 M after 48 hrs by sulforhodamine B assay; conditions: OVCAR-8, 48 h, read-out: Activity
# [17] = Antiproliferative activity against human SKOV3 cells assessed as cell growth at 10^-5 M after 48 hrs by sulforhodamine B assay; conditions: SK-OV-3, 48 h, read-out: Activity
# 786-0 = test: Antiproliferative activity against human 786-0 cells assessed as cell growth at 10^-5 M after 48 hrs by sulforhodamine B assay; conditions: 786-0, 48 h, read-out: Activity
# A498 = test: Antiproliferative activity against human A498 cells assessed as cell growth at 10^-5 M after 48 hrs by sulforhodamine B assay; conditions: A498, 48 h, read-out: Activity
# [18] = Antiproliferative activity against human Caki1 cells assessed as cell growth at 10^-5 M after 48 hrs by sulforhodamine B assay; conditions: CAKI-1, 48 h, read-out: Activity
# SN12C = test: Antiproliferative activity against human SN12C cells assessed as cell growth at 10^-5 M after 48 hrs by sulforhodamine B assay; conditions: read-out: Activity
# [19] = Antiproliferative activity against human TK10 cells assessed as cell growth at 10^-5 M after 48 hrs by sulforhodamine B assay; conditions: TK-10, 48 h, read-out: Activity
# [20] = Antiproliferative activity against human UO31 cells assessed as cell growth at 10^-5 M after 48 hrs by sulforhodamine B assay; conditions: UO-31, 48 h, read-out: Activity
# MCF7 = test: Antiproliferative activity against human MCF7 cells assessed as cell growth at 10^-5 M after 48 hrs by sulforhodamine B assay; conditions: MCF7, 48 h, read-out: Activity
# MDA-MB-231 = test: Antiproliferative activity against human MDA-MB-231 cells assessed as cell growth at 10^-5 M after 48 hrs by sulforhodamine B assay; conditions: MDA-MB-231, 48 h, read-out: Activity
# [21] = Antiproliferative activity against human Hs 578T cells assessed as cell growth at 10^-5 M after 48 hrs by sulforhodamine B assay; conditions: read-out: Activity
# [22] = Antiproliferative activity against human BT549 cells assessed as cell growth at 10^-5 M after 48 hrs by sulforhodamine B assay; conditions: BT-549, 48 h, read-out: Activity
# T47D = test: Antiproliferative activity against human T47D cells assessed as cell growth at 10^-5 M after 48 hrs by sulforhodamine B assay; conditions: read-out: Activity
compound,measurement,setting,value
CNC(=O)c1cc(Oc2ccc3nc(NC(=O)Nc4ccc(C(F)(F)F)cc4)sc3c2)ccn1,inhibition of growth at 100 µM,[1],74.9%
same,inhibition of growth at 10 µM,[2],64.8%
same,inhibition of growth at 100 µM,[3],79.6%
same,inhibition of growth at 10 µM,[4],69.9%
same,growth at 10 µM,[5],73.3%
same,growth at 10 µM,[6],70.4%
same,growth at 10 µM,A549,1.79%
same,growth at 10 µM,[7],67.3%
same,growth at 10 µM,[8],74.4%
same,growth at 10 µM,NCI-H226,85.6%
same,growth at 10 µM,NCI-H460,33.4%
same,growth at 10 µM,NCI-H522,42.4%
same,growth at 10 µM,[9],58.8%
same,growth at 10 µM,[10],54.2%
same,growth at 10 µM,KM12,65%
same,growth at 10 µM,[11],29.1%
same,growth at 10 µM,Malme-3M,20.8%
same,growth at 10 µM,M14,35.8%
same,growth at 10 µM,SK-MEL-2,92.9%
same,growth at 10 µM,SK-MEL-28,68.9%
same,growth at 10 µM,[12],86.7%
same,growth at 10 µM,[13],70.9%
same,growth at 10 µM,[14],24%
same,growth at 10 µM,[15],37.7%
same,growth at 10 µM,[16],48.5%
same,growth at 10 µM,[17],105%
same,growth at 10 µM,786-0,35.5%
same,growth at 10 µM,A498,98.8%
same,growth at 10 µM,[18],92%
same,growth at 10 µM,SN12C,71.2%
same,growth at 10 µM,[19],55.3%
same,growth at 10 µM,[20],65%
same,growth at 10 µM,MCF7,42%
same,growth at 10 µM,MDA-MB-231,63.5%
same,growth at 10 µM,[21],30%
same,growth at 10 µM,[22],62.3%
same,growth at 10 µM,T47D,44.8%
